Experimental data reported in patent EP2563337B1, “CARRIER AND TARGETING SYSTEM COMPRISING A SIOSOMAL COMPOSITION FOR INTRACELLULAR DELIVERY AND TARGETING OF ACTIVE SUBSTANCE” (Salama, Zoser B., priority 2010, dated 2011).

Experiments:
[1] = Encapsulation efficiency of doxorubicin hydrochloride in siosomes (absorbance at 480 nm after gel filtration); type: physicochemical
Method: A doxorubicin hydrochloride solution at 10 mg/ml was prepared using physiological saline. The predetermined amount of the doxorubicin hydrochloride solution was added to the sugar siosome dispersion using the cationic organosilicon compounds such as 1.2-(Dimethyldecylsilyl)ethyl-beta-D-glucosamin, 2.2-(Dimethyloctylsilylcholin)ethyl-beta-D-glucopyranosid and/or 1.2-(DiN,N,N,trimethylammoniadecylsilyl)ethyl-beta-D-glucopyranosid and the mixture was adjusted to pH 7.4, using 1 N NaOH or saturated sodium hydrogencarbonate and the mixture was stirred at 65°C for 30 minutes the thereby introduce the doxorubicin hydrochloride in the siosomes.
After doxorubicin hydrochloride introduction, the sample was cooled in an ice bath. Gel filtration was conducted using a column (Sepharose 4, fast flow, having a diameter of 2.8 cm and a length of 20 cm, fully substituted with 10% sucrose (pH 6.5)) to remove the doxorubicin hydrochloride that had not been introduced in the siosomes.
The amount of the sugar silanes in the siosomes, the amounts of the doxorubicin hydrochloride encapsulated in the siosomes and the siosomes themselves were measured by the same methods as in the above examples.
Concentration of the doxorubicin hydrochloride encapsulated in the siosomes was determined by measuring absorbance at 480 nm, using a spectrophotometer for the solution prepared by adding 2 ml of methanol to 40 µl of the doxorubicin siosomes. An alternative HPLC-based assay has also been used for the quantification of the doxorubicin in the formulations.
The above procedures described in example 16 were employed to prepare the carrier siosomes systems in this example. According to these methods of preparation, a dispersion of each of the following organo-silicon compounds were prepared, using doxorubicin hydrochloride solutions at […]. • Sil 8.1: Decyldimethylsilyl-α-D-galactopyranosid • Sil 9.1: Dodecyldimethylsilyl-α-D-glucopyranosid • SIL 15: 1-O-Dioctadecylsilyl-di(2,3,4,6-O-tetracetyl-β-D-galactopyranosid) • SIL 14: 1-o-Dioctadecylsilyl-di(2,3,4,6-O-tetracetyl-β-D-glucopyranosid)1-o- • SIL17: Didodecylsilyl-di(2,3,4,6-O-tetracetyl-β-D-glucopyranosid) • SIL18: Tridodecylsilyl-(2,3,4,6-O-tetracetyl-β-D-glucopyranosid) • Sil22.1 Di(octadecanoyloxy)dimethylsilan
The following parameters have been determined: 1 Physico chemical properties 2 Encapsulated efficiency of doxorubicin 3 Stability 4 Particle size distribution prior to lyophilisation and after dehydration using sterile water for injection 5 Release profile

[2] = for Particle size range of the Doxorubicin-siosomes (nm): Example 18: doxorubicin-siosomes prepared from the single organosilicon compound; for Particle size (nm): Example 19: doxorubicin-siosomes from organosilicon compounds and combinations
Method: The siosome size was measured using Zetasizer (Malvern Instruments).
The obtained test samples were analyzed using a Zetasizer from Malvern to measure the particle size of the Siosomes® and its concentration (via determination of the count rate which related to the sample quality and concentration).
The Zetasizer from Malvern performs particle size measurements using a process called Dynamic Light Scattering (DLS). Dynamic Light Scattering (also known as PCS - Photon Correlation Spectroscopy) measures Brownian motion and relates this to the size of the particles. It does this by illuminating the particles with a laser and analyzing the intensity fluctuations in the scattered light. If the particles or molecules are illuminated with a laser, the intensity of the scattered light fluctuates at a rate that is dependent upon the size of the particles as smaller particles are "kicked" further by the solvent molecules and move more rapidly.

[3] = Example 18: doxorubicin-siosomes prepared from the single organosilicon compound
[4] = Example 19: doxorubicin-siosomes from organosilicon compounds and combinations

Row | Molecule | Encapsulation efficiency (%) [1, 3] | Particle size range of the Doxorubicin-siosomes (nm) [2] | Encapsulation efficiency (%) [1, 4] | Particle size (nm) [2]
1 | 2-(Dimethyl nonaoic acid silyl)ethyl-beta-D-PEG-acetylglucosaminether [SIL 53] | 80-85% | 180-250 nm | – | –
2 | 2-(Dimethylcholesterylhemisuccinatesilyl)ethyl-beta-D-glucopyranosid sulfate [SIL 59] | 60-70% | 180-220 nm | – | –
3 | 2-(Dimethyloctadecylsilyl)ethyl-beta-N-acetylmuramic acid [SIL 60] | 60-70% | 200-250 nm | – | –
4 | 2-(Dimethyloctylsilylcholin)ethyl-beta-D-PEG-acetylglucosaminether [SIL 54] | 80-85% | 200-250 nm | – | –
5 | 2-(N,N,N,trimethylammonia nonyllsilyl)ethyl-beta-D-glucopyranosid [SIL 67] | 60-70% | 200-280 nm | – | –
6 | CCCCCCCCCCCCCCCCCC[Si](CCCCCCCCCCCCCCCCCC)(O[C@@H]1O[C@H](COC(C)=O)[C@@H](OC(C)=O)[C@H](OC(C)=O)[C@H]1OC(C)=O)O[C@@H]1O[C@H](COC(C)=O)[C@@H](OC(C)=O)[C@H](OC(C)=O)[C@H]1OC(C)=O [SIL 14, 1-O-Dioctadecylsilyl-di(2,3,4,6-O-tetraacetyl-β-D-glucopyranosid)] | 75-80% | 210-260 nm | – | –
7 | CCCCCCCCCCCCCCCCCC[Si](CCCCCCCCCCCCCCCCCC)(O[C@@H]1O[C@H](COC(C)=O)[C@H](OC(C)=O)[C@H](OC(C)=O)[C@H]1OC(C)=O)O[C@@H]1O[C@H](COC(C)=O)[C@H](OC(C)=O)[C@H](OC(C)=O)[C@H]1OC(C)=O [SIL 15, 1-O-Dioctadecylsilyl-di(2,3,4,6-O-tetraacetyl-β-D-galactopyranosid)] | 70-78% | 180-250 nm | – | –
8 | CCCCCCCCCCCC[Si](CCCCCCCCCCCC)(CCCCCCCCCCCC)O[C@@H]1O[C@H](COC(C)=O)[C@@H](OC(C)=O)[C@H](OC(C)=O)[C@H]1OC(C)=O [SIL 18, Tridodecylsilyl-(2,3,4,6-O-tetraacetyl-β-D-glucopyranosid)] | 55-60% | 160-250 nm | 60-80% | 220-350 nm
9 | CCCCCCCCCC(=O)O[Si](C)(C)OC(=O)CCCCCCCCC [SIL 21.1, Di(decanoyloxy)dimethylsilan] | 60-75% | 210-240 nm | – | –
10 | CCCCCCCC[Si](C)(C)CCO[C@@H]1O[C@H](CO)[C@H](O)[C@H](O)[C@H]1O [SIL 22, 2-(Dimethyloctylsilyl)ethyl-β-D-galactopyranosid] | – | – | 55-70% | 250-300 nm
11 | CCCCCCCCCC[Si](C)(C)CCO[C@@H]1O[C@H](C(=O)O)[C@@H](O)[C@H](O)[C@H]1O [SIL 57, 2-(Dimethyldecylsilyl)ethyl-beta-D-glucopyranosidcarboxylate] | 75-80% | 180-270 nm | – | –
12 | C[Si](C)(CCCCCCCCC(=O)O)CCO[C@@H]1O[C@H](CO)[C@@H](O)[C@H](O)[C@H]1O [SIL 58, 2-(Dimethylnonanoic acid silyl)ethyl-beta-D-glucopyranosid] | 70-80% | 150-270 nm | – | –
13 | C[Si](C)(CCCCCCCCCC(=O)O)CCOC1O[C@H](CO)[C@H](O)[C@H](O)[C@H]1N (stereo partly drawn) [SIL 68] | 70-80% | 180-220 nm | – | –
14 | CCCCCCCCCC[Si](C)(C)O[C@H]1O[C@H](CO)[C@H](O)[C@H](O)[C@H]1O [Sil 8.1, Decyldimethylsilyl-α-D-galactopyranosid] | 65-70% | 100-220 nm | – | –
